According to US10913781B2, “Pepducin design and use” (Tufts Medical Center, Inc., priority 2011, dated 2021):
Peptide text beside a SMILES is read from it. * marks the point of attachment. Palmitoyl = CCCCCCCCCCCCCCCC(=O)*

Key:
[1] = system: A549, HOP62, and HOP92 lung carcinoma cell lines; assay: Cytotoxicity/cell viability of lung carcinoma cells (MIT assay); assay type: cell-based, human; details: 3-day period
[2] = system: CXCR1/CXCR2; assay: Human neutrophil chemotaxis to IL-8; assay type: cell-based; details: 100 nM IL-8
Description: (§1) (A) Human neutrophils (n=4 normal volunteers) were analyzed for surface expression of human PAR1, PAR2, and PAR4 by flow cytometry with PAR-specific antibodies. […] Chemotaxis index is the ratio of directed versus random migration over 30 min through a 5-μm pore filter.
(§2) P2pal-18S had no effect on PAR1-dependent platelet aggregation (FIG. 5A). Neither P2pal-18S nor P2pal-14GQ caused membrane disruption or apoptosis as assessed by propidium iodide uptake in SW620 cells with up to 30 μM concentrations of pepducin (FIG. 5B).

[3] = target: T1, PAR2-homodimers (Homo sapiens, UniProt P55085, Q172R/R173Q/R36A); assay: Migration of HEK cells co-expressing PAR2-R36A and PAR2-RQ toward trypsin; assay type: cell-based; details: 30 nM trypsin; 18 h
T1 construct: expressed in transfected cells; host or cells: HEK
T1 sequence (P55085 26-397 R36A): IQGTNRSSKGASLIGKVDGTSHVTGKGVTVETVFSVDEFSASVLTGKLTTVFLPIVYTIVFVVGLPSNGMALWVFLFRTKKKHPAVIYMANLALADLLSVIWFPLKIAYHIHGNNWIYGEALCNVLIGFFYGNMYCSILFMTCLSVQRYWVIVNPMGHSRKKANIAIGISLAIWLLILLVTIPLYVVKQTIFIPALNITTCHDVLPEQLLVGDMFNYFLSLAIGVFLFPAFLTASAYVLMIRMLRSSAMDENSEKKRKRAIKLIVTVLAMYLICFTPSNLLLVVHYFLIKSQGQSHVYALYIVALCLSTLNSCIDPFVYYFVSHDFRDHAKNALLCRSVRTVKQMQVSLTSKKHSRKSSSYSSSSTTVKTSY
T1 sequence (P55085 37-397 Q172R/R173Q): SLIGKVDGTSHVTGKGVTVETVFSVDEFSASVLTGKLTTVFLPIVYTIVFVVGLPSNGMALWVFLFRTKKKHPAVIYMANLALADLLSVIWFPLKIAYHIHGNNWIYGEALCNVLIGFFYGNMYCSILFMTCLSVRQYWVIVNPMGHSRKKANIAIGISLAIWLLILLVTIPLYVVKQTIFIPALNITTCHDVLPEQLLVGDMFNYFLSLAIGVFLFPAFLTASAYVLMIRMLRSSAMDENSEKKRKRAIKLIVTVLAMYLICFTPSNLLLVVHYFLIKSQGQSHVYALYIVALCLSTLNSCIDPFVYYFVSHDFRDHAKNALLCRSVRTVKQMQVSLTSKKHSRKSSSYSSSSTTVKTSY
Description: (§3) (A) PAR2 antagonist pepducins P2pal-18S and P2pal-14GQ inhibit calcium flux induced by PAR2 (SLIGRL) (SEQ ID NO:4) but not PAR1 (TFLLRN) (SEQ ID NO:2) agonists. SW620 cells were stably transfected with PAR1 and pretreated for 1 min with various concentrations of P2pal-18S or P2pal-14GQ and then stimulated with 30 μM PAR agonist. […] Cells were stimulated with 1 μM TFLLRN (SEQ ID NO:2), 1 μM SLIGRL (SEQ ID NO:4) or 100 μM AYPGKF (SEQ ID NO:5) and [^3H]-InsP formation measured over 30 min. (C) SW620 cells were treated with the indicated concentrations of P2pal-18S or P2pal-14GQ in the upper well of an 8-μm pore Boyden chamber and allowed to migrate for 18 h towards 10 μM of the PAR2 specific agonist SLIGRL in the lower chamber. The migration to RPMI/0.1% FBS represents random migration. (D) Migration of HEK cells transiently transfected with PAR2 (wild-type, WT), or PAR2-R36A/PAR2-RQ toward chemotactic gradients of 30 nM trypsin in the absence or presence of the indicated concentration of P2pal-18S for 18 h in a transwell apparatus ([…]). Data (n=2-4) are mean±SEM. *, P<0.05 and **, P<0.005.
To provide functional evidence that one PAR2 receptor can interact with an adjacent PAR2 receptor, a signaling dead PAR2-RQ mutant was constructed by transposing residues at Q172 and R173 located in the critical ‘DRY’ TM3 motif (FIG. 1A, the second set of sequence labeled as “QR->RQ”). […]

[4] = target: T2, PAR2 (Homo sapiens, UniProt P55085); assay: Trypsin cleavage of PAR2; assay type: cell-based
T2 sequence (P55085 26-397): as the sequence (P55085 26-397 R36A) above, with A11R counted along it
From the text: Additionally, we tested whether P2pal-18S inhibited proteolytic cleavage of PAR2 or endocytosis (DeFea K A, et al. (2000) J Cell Biol 148: 1267-81; Roosterman D, et al. (2003) Am J Physiol Cell Physiol 284: C1319-29; Stalheim L, et al. (2005) Mol Pharmacol 67: 78-87). […] Therefore, the P2pal-18S i3 loop pepducin can inhibit PAR2-dependent calcium signaling, PLC-b inositol phosphate formation, and cell migration, but not proteolytic cleavage or endocytosis.

[5] = target: T3, PAR1 (Homo sapiens, UniProt P25116); assay: Ligand-dependent endocytosis of PAR1; assay type: cell-based
T3 sequence (P25116 22-425): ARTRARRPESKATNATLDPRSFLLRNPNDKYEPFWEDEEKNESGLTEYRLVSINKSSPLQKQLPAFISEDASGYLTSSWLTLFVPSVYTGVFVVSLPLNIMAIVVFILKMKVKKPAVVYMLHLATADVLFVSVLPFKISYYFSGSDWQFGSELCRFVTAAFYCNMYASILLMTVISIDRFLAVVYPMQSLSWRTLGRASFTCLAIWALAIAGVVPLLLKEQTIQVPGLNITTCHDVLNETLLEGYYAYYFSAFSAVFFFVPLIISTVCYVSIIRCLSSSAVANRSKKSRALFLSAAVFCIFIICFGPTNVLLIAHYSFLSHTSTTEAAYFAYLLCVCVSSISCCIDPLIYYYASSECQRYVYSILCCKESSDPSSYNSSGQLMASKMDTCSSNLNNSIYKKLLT

[6] = target: T3, PAR1; assay: Human neutrophil chemotaxis to TFLLRN; assay type: cell-based; parameters: endogenous in cells; details: 10 μM TFLLRN
Description: as §1, §2

[7] = target: T2, PAR2; assay: PLC-b inositol phosphate formation, PAR2 (SLIGRL); assay type: cell-based; parameters: expressed in transfected cells; host or cells: COS7
Description: as §3
Additionally, we tested whether P2pal-18S inhibited proteolytic cleavage of PAR2 or endocytosis (DeFea K A, et al. (2000) J Cell Biol 148: 1267-81; Roosterman D, et al. (2003) Am J Physiol Cell Physiol 284: C1319-29; Stalheim L, et al. (2005) Mol Pharmacol 67: 78-87). […]

[8] = target: T2, PAR2; assay: Calcium flux screen for PAR2 pepducin agonist and antagonist activity in SW620 cells; assay type: cell-based; parameters: SW620 colon adenocarcinoma cells that endogenously express PAR2; endogenous in cells; host or cells: SW620 (in A7 the SW620 cells were additionally stably transfected with PAR1); details: 3-4 μM and 14-15 μM pepducin
Description: (A) Agonist and antagonist activity of third intracellular (i3) loop PAR2 pepducins (structure shown on top) using calcium flux assays with SW620 colon adenocarcinoma cells that endogenously express PAR2. Each column of three calcium flux traces corresponds to the i3 pepducin sequence shown above. The top row is the agonist activity of 3-4 μM pepducin and the middle row is the agonist activity of 14-15 μM pepducin. […] Final concentration of DMSO vehicle was 0.2%. […] (C) Agonist activity for each pepducin from (A) is reported as initial velocity of calcium flux at 4 μM pepducin (†), or at 14-15 μM pepducin (‡).

Compound	Sensitivity of A549 cells (cytotoxicity) [1]	Antagonist activity, neutrophil chemotaxis, CXCR1/2 IL-8 receptors [2]	Suppression of chemotactic migration (transactivation of PAR2-homodimers) [3]	Effect on trypsin cleavage of PAR2 [4]	Inhibition of ligand-dependent endocytosis of PAR1 [5]	Antagonist activity, neutrophil chemotaxis, PAR1 [6]	Inhibition of PAR2-dependent PLC-b inositol phosphate formation [7]	Agonist activity (calcium flux) [8]
CCCCCCCCCCCCCCCC(=O)N[C@H](C(=O)N[C@@H](CC(C)C)C(=O)N[C@@H](CCCCN)C(=O)N[C@@H](CCSC)C(=O)N[C@@H](CCCCN)C(=O)N[C@H](C(=O)N[C@@H](CCCCN)C(=O)N[C@@H](CCCCN)C(=O)N1CCC[C@H]1C(=O)N[C@@H](C)C(=O)N[C@H](C(N)=O)C(C)C)C(C)C)[C@@H](C)CC [P1pal-i1-11] (Palmitoyl-ILKMKVKKPAV-NH2)	less sensitive							
CCCCCCCCCCCCCCCC(=O)N[C@@H](CCCNC(=N)N)C(=O)N[C@@H](CO)C(=O)N[C@@H](CO)C(=O)N[C@@H](C)C(=O)N[C@@H](CCSC)C(=O)N[C@@H](CC(=O)O)C(=O)N[C@@H](CCC(=O)O)C(=O)N[C@@H](CC(N)=O)C(=O)N[C@@H](CO)C(=O)N[C@@H](CCC(=O)O)C(=O)N[C@@H](CCCCN)C(=O)N[C@@H](CCCCN)C(=O)N[C@@H](CCCNC(=N)N)C(=O)N[C@@H](CCCCN)C(=O)N[C@@H](CO)C(=O)N[C@@H](C)C(=O)N[C@H](C(=O)N[C@@H](CCCCN)C(N)=O)[C@@H](C)CC [P2pal-18S]		no antagonist activity	complete suppression	no effect	did not inhibit	no antagonist activity	can inhibit	no detectable or otherwise significant agonist activity
